Measurements reported in patent US20260109727A1, “RNA CONSTRUCTS AND USES THEREOF” (BioNTech SE, priority 2022, published 2026).
Blank lines part the entries; values can stand above or below the compound they belong to.

Columns and labels:
BALB/c mice [1] = assay: Plasma EPO in mice IV injected with 3 μg TransIT-complexed EPO mRNA (ELISA); assay type: in vivo
Method: (§1) To confirm in vitro data, female BALB/c mice from Jackson Laboratory (Bar Harbor, ME, USA) at the age of eight to ten weeks were used for in vivo experiment in accordance with federal policies on animal research (Ethics approval number: G18-12-027). Mice (n=3/group) were injected intravenously (i.v.) with 3 μg TransIT-complexed (Mirus Bio) EPO mRNAs in a final volume of 200 μL Dulbecco's modified Eagle medium (DMEM). Mice used as controls were injected with TransIT-reagent diluted in DMEM but without RNA. Mice were injected with EPO mRNA complexed with TransIT-reagent and EPO levels in plasma were measured using ELISA (FIG. 8A). Hematocrit was measured from 18 μl of blood that was collected at the indicated times using centrifugation in Drummond microcaps glass capillary tubes (20 μl volume, Merck, Germany) as described (20) (FIG. 8B). After determination of the hematocrit, capillary tubes were snapped open, and the plasma was collected to measure EPO levels and analyzed for mouse Erythropoietin DuoSet ELISA kit (R&D Systems) according to the manufacturer's instructions. […] EPO RNA containing m1Ψ translated two-fold more than U-containing mRNA at each time points (FIG. 8A). Both compound I′-1 and compound I′-6 are suitable for translation of the encoded protein and each cap analog can be used for synthesizing of non-replicating functional mRNAs (FIG. 8A, 8B).
(§2) In each in vivo experiment in order to measure the translational efficiency and to determine the functionality of EPO mRNA capped with I′-1, I′-2, I′-3, I′-5, I′-6, I′-9, I′-12, I′-13, I′-16, CC114, and CC413 in vivo, female BALB/c mice from Jackson Laboratory (Bar Harbor, ME, USA) at the age of eight to ten weeks were used for in accordance with federal policies on animal research (Ethics approval number: G19-12-074). In each case, mice (n=3/group) were injected intravenously (i.v.) with 3 μg TransIT-complexed (Mirus Bio) EPO mRNAs in a final volume of 200 μL Dulbecco's modified Eagle medium (DMEM). Mice used as controls were injected with TransIT-reagent diluted in DMEM but without RNA. To measure hematocrits and EPO levels in the individual mice that were injected with EPO mRNA capped with I′-6, I′-1, CC114, and CC413 and complexed with TransIT-reagent, 18 μL of blood was collected at the indicated times (FIG. 8B) and centrifuged in Drummond microcaps glass capillary tubes (20 μl volume, Merck, Germany) as described (19). After determination of the hematocrit, capillary tubes were snapped open, and the plasma was collected to measure EPO levels and analyzed for mouse Erythropoietin DuoSet ELISA kit (R&D Systems) according to the manufacturer's instructions. […] EPO RNA containing m1Ψ modifications translated 2-3-fold, 5-fold, and 10-fold more than U-containing mRNAs at 6-24, 48 and 72 hours after injections, respectively. (FIG. 8A). […] To address translation of I′-6-capped mRNA in human primary hepatocytes, EPO level was measured from supernatants transfected using 0.1 μg/well TransIT-formulated I′-6- or CC114-capped uRNA (FIG. 13).
To this end, we generated U-containing as well as m1Ψ-modified EPO RNA capped with cap analogs which belong to either the non-ARCA (I′-13) or ARCA (I′-6) classes. Moreover, the latter ones contain 2′-OMe (I′-5) or 3′-OMe (I′-6) at the ribose of the m7G moiety. Three μg of TransIT-complexed EPO mRNA capped with nucleoside modification-containing NeoCaps I′-13, I′-5 and I′-6 cap analogs were injected into mice intravenously. After that EPO level of plasma collected from mice was measured at 6, 24 and 48 hours after administration to compare the translational activity of mRNA capped with NeoCaps with U-containing or m1Ψ-modified mRNA capped with non-modified ARCA 3′OMe I′-1.
Plasma EPO level of mice injected with 3 μg of each TransIT-complexed mRNA was determined using murine EPO-specific ELISA at 6, 24, 48 and 72 hours after intravenous administration. […]

BALB/c mice [2] = assay: Hematocrit in mice IV injected with 3 μg TransIT-complexed EPO mRNA; assay type: in vivo; settings: D14 after injection
Method: as §1, §2

human PBMCs [3] = assay: XTT cytotoxicity test of PBMCs transfected with LPX-formulated EPO mRNA; assay type: cell-based; settings: 24 h, up to 1 μg/well mRNA
Method: Human buffy coats from healthy individuals were obtained from the Faculty of Medicine of Johannes Gutenberg University, Mainz and used to isolate peripheral blood mononuclear cells (PBMCs) on a Ficoll-Paque™ PLUS (Cytiva, Marlborough, MA, USA) density gradient. In preparation for mRNA transfection, cryopreserved PBMCs were thawed and seeded into 96-well plates at a density of 5×10^5 cells per well in 190 μL RPMI medium supplemented with 1% non-essential amino acids (NEAA), 1% sodium pyruvate and 10% Fetal Bovine Serum (Merck, Germany). Cells were maintained at 37° C. with 5% CO2 until transfection with 0.5, 1.5, 5.0 and 15 μg/ml lipoplex-formulated EPO mRNA (LPX-RNA), as described in Kranz, L. M., et al. (2016) Nature, 534, 396-401. The complexed RNA (10 μl per well) was added in triplicates and supernatants were collected at 24 h after transfection to perform single cell cytotoxicity assay and to measure the cytokine/chemokine profile. […] The levels of IL-6 (Interleukin 6), TNF-α (Tumor necrosis factor alpha), IL-1 (Interleukin 1 beta), IFN-γ (Interferon gamma), MCP-1 (Monocyte Chemoattractant Protein-1), […] (Macrophage inflammatory protein 1 beta) and IL-10 (Interleukin 10) were quantified 24 h after the mRNA transfection. […]

[4] = test system: human primary hepatocytes; assay: EPO secretion in human primary hepatocytes transfected with TransIT-EPO mRNA (ELISA); assay type: cell-based
Method: To measure the translational efficiency of EPO mRNA capped with compound I′-1, compound I′-6, CC114, and CC413 in vitro, human primary hepatocytes were seeded into 96-well plates at a density of 2.5×10^4 cells per well and were transfected with mRNA samples (0.1 μg) complexed with TransIT reagent (Mirus Bio, Madison, WI, USA) in a final volume of 200 μL in InVitroGRO CP Medium (Sigma-Aldrich) supplemented with Thorpedo Antibiotic Mix (Sigma-Aldrich). To quantify EPO levels, the supernatant was collected at 1, 2, 3, 4, 5 and 6 day after transfection and EPO levels were analyzed by mouse Erythropoietin DuoSet ELISA kit (R&D Systems, Minneapolis, MN, USA) according to the manufacturer's instructions.
as §2
To test if various uridine (U) or pseudouridine (Ψ) derivatives of cap analogues can improve translation in human primary hepatocytes, we first measured EPO secretion after application of EPO-encoding Ψ-mRNA capped with compounds described herein analog bearing pseudouridine (I′-3) or CC413 (no modification). […] In addition, all tested modification bearing caps led to increase in EPO secretion at 24 h and 48 h when compared to the unmodified I′-1 (FIG. 16).

human PBMCs [5] = assay: Cytokine/chemokine secretion in human PBMCs (MSD V-PLEX); assay type: cell-based; settings: for proinflammatory cytokine/chemokine responses compared to m1Ψ-modified mRNA: lipid-complexed U-containing mRNA, even at lowest dose 0.5 μg/ml
Method: Human buffy coats from healthy individuals were obtained from the Faculty of Medicine of Johannes Gutenberg University, Mainz and used to isolate peripheral blood mononuclear cells (PBMCs) on a Ficoll-Paque™ PLUS (Cytiva, Marlborough, MA, USA) density gradient. In preparation for mRNA transfection, cryopreserved PBMCs were thawed and seeded into 96-well plates at a density of 5×10^5 cells per well in 190 μL RPMI medium supplemented with 1% non-essential amino acids (NEAA), 1% sodium pyruvate and 10% Fetal Bovine Serum (Merck, Germany). Cells were maintained at 37° C. with 5% CO2 until transfection with 0.5, 1.5, 5.0 and 15 μg/ml lipoplex-formulated EPO mRNA (LPX-RNA), as described in Kranz, L. M., et al. (2016) Nature, 534, 396-401. The complexed RNA (10 μl per well) was added in triplicates and supernatants were collected at 24 h after transfection to perform single cell cytotoxicity assay and to measure the cytokine/chemokine profile. To determine the cell viability and the production of selected cytokines/chemokines, supernatants from human PBMCs transfected with LPX-RNA were subjected to XTT cytotoxicity test using Cell Proliferation Kit II (Sigma-Aldrich) and cytokine/chemokine profile analysis using the Meso Scale Discovery V-PLEX Custom Human Biomarkers Proinflammatory and Chemokine Panel (Meso Scale Diagnostics—MSD, Rockville, MD, USA) according to the manufacturer's instructions, respectively. In regards of cytokine/chemokine profile analysis, a sample dilution of 1:5 (supernatant:MSD diluent) was used in each experiment. The levels of IL-6 (Interleukin 6), TNF-α (Tumor necrosis factor alpha), IL-1 (Interleukin 1 beta), IFN-γ (Interferon gamma), MCP-1 (Monocyte Chemoattractant Protein-1), […] (Macrophage inflammatory protein 1 beta) and IL-10 (Interleukin 10) were quantified 24 h after the mRNA transfection. […] This low immunogenicity can be directly attributed to the nucleoside modifications incorporated into the mRNA. To illustrate this, cells treated with lipid-complexed U-containing mRNA capped with compound I′-1, CC114 and CC413 induced much higher proinflammatory cytokine/chemokine responses even at their lowest dose (0.5 μg/ml) when compared to m1Ψ-modified mRNA (FIG. 6).
To test the effect of the cap types and mRNA 5′end on immunogenicity in human peripheral blood monocyte cells (PBMCs) we compared changes in levels of cytokines and chemokines after application of Lipoplex (LPX)-formulated EPO mRNAs. First, we compared the impact of m1Ψ-mRNA capped with I′-6 containing a UAGU 5′end vs. CC413 (AGAAU 5′end) (FIG. 12). […] Second, we compared capped EPO uRNA with I′-6 or I′-1 (FIG. 14). In this case both mRNAs had the same TAGT 5′end. […] Thus, benefit of I′-6 in decreasing the immunogenicity and thus increasing safety was found when I′-6 was used.

proinflammatory cytokine/chemokine responses compared to m1Ψ-modified mRNA (human PBMCs [5]): much higher
cytokines/chemokines, compared with CC413 (human PBMCs [5]; unmodified mRNA, 24 h): significantly higher
Compound: COC1C(OP(=O)([O-])OC[C@H]2O[C@@H](n3ccc(=O)[nH]c3=O)C(O)C2O)[C@@H](COP(=O)(O)OP(=O)(O)OP(=O)(O)OC[C@H]2O[C@@H](n3c[n+](C)c4c(O)nc(N)nc43)C(O)C2OC)O[C@H]1n1cnc2c(N)ncnc21 (stereo partly drawn) [I′-1, m^7G(^3′-OMe)pppA(2′-OMe)pU]
translational capacity compared with m1Ψ in cap (I′-6) and mRNA (BALB/c mice [1]; U-containing mRNA, each time point): significantly lower
translation of ARCA analogs compared to non-ARCA caps CC114 and I′-13 (BALB/c mice [1]; regardless of the RNA modification): significantly better
decrease of hematocrit values from D14 (BALB/c mice [2]): not observed
toxic effect on cell viability (XTT) (human PBMCs [3]): no toxic effect
translation (EPO secretion) compared to CC413 ([4]; 0.1 μg/well TransIT-EPO mRNA, 24 hrs): higher translation
translation compared to CC413 ([4]; unmodified RNA, each time point after transfection (day 1-6)): higher translation

Compound: COC1C(OP(=O)(O)OC[C@H]2O[C@@H](c3c[nH]c(=O)[nH]c3=O)C(O)C2O)[C@@H](COP(=O)(O)OP(=O)([O-])OP(=O)(O)OC[C@H]2O[C@@H](n3c[n+](C)c4c(O)nc(N)nc43)C(O)C2OC)O[C@H]1n1cnc2c(N)ncnc21 (stereo partly drawn) [I′-3, m^7G(^3′-OMe)pppA(2′-OMe)pΨ]
EPO level compared to I′-6 (BALB/c mice [1]; m1Ψ-modified mRNA, 48 and 72 hours after injection): equal or slightly less
level of EPO compared to CC413 ([4]; EPO-encoding Ψ-mRNA, 24 h and 48 h): higher

Compound: COC1C(OP(=O)(O)OC[C@H]2O[C@@H](c3cn(C)c(=O)[nH]c3=O)C(O)C2O)[C@@H](COP(=O)(O)OP(=O)([O-])OP(=O)(O)OC[C@H]2O[C@@H](n3c[n+](C)c4c(O)nc(N)nc43)C(O)C2O)O[C@H]1n1cnc2c(N)ncnc21 (stereo partly drawn) [I′-13, m^7GpppA(2′-OMe)pm^1Ψ]
translation of m1Ψ-mRNA capped with I′-13 relative to U-mRNA capped with CC114 (BALB/c mice [1]; 6 h after injection): 8 fold
translation of m1Ψ-mRNA capped with I′-13 relative to U-mRNA capped with CC114 (BALB/c mice [1]; 24 h after injection): 25 fold
translation compared to mRNA capped with non-modified ARCA cap (BALB/c mice [1]; each tested time point (6, 24, 48 h), regardless of the mRNA modification): at least two-fold better

proinflammatory cytokine/chemokine responses compared to m1Ψ-modified mRNA (human PBMCs [5]): much higher
Compound: (m2^7,3′-O)Gppp(m^2′-O)ApG [CC413, reference compound]
translational efficiency and biological activity (murine EPO, hematocrit %) of EPO mRNA (BALB/c mice [1]; FIG. 1, CC413 vs CC113): significantly better than CC113
decrease of hematocrit values from D14 (BALB/c mice [2]): started to decrease at D14

proinflammatory cytokine/chemokine responses compared to m1Ψ-modified mRNA (human PBMCs [5]): much higher
Compound: (m^7)Gppp(m^2′-O)ApU [CC114, reference compound]
decrease of hematocrit values from D14 (BALB/c mice [2]): started to decrease at D14
